Reference: ChEMBL document CHEMBL4725416, “Structure-Based Discovery of Novel Ligands for the Orexin 2 Receptor” (J Med Chem, 2020)
Active and inactive are the calls of the source. Unless noted, the calls are words filed in the database; no cut-off is given here.

Key:
[1] = organism: Homo sapiens; assay: (§1) Displacement of [3H]-EMPA from human orexin 2 receptor expressed in CHO cells incubated for 2 hrs by whole cell radioligand binding assay; type: cell-based
[2] = target: T1, Orexin receptor type 2 (Homo sapiens) (UniProt O43614); assay: Agonist activity at human orexin 2 receptor expressed in CHO cells assessed as increase in calcium mobilization incubated for 120 secs by Fluo-4AM dye based fluorescence assay; type: functional, cell-based; conditions: time 120.0 sec
T1 sequence (whole entry): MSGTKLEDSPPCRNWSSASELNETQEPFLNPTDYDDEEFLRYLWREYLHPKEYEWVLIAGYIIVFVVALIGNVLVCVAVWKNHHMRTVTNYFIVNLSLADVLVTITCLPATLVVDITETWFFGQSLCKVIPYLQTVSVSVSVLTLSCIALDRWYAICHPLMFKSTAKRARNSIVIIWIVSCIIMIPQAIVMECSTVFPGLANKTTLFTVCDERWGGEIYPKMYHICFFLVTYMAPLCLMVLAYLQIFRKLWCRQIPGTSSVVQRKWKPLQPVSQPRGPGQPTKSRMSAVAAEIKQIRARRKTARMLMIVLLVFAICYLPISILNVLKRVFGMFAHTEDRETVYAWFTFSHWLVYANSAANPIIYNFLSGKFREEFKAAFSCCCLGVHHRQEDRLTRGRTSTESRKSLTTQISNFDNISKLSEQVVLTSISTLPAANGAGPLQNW

[3] = target: T2, Orexin/Hypocretin receptor type 1 (Homo sapiens) (UniProt O43613); assay: (§2) Displacement of [3H]-[…] from human orexin 1 receptor expressed in CHO cells incubated for 2 hrs by whole cell radioligand binding assay; type: cell-based
T2 sequence (whole entry): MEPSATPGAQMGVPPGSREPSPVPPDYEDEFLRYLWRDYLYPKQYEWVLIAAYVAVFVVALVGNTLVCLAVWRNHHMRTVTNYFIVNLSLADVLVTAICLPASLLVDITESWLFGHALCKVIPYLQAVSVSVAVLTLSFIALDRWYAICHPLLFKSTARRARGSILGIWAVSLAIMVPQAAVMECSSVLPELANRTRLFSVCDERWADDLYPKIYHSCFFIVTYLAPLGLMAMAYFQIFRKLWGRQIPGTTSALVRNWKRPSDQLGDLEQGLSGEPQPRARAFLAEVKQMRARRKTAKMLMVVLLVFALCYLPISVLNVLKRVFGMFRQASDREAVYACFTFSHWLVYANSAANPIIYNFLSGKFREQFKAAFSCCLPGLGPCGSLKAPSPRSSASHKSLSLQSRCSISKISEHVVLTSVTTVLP

[4] = as §1; type: cell-based
[5] = organism: Homo sapiens; assay: Displacement of [3H]-EMPA from human orexin 2 receptor expressed in CHO cells incubated for 2 hrs by whole cell radioligand binding assay relative to control; type: cell-based; parameters: concentration or dose not given beside the values; conditions: dose or concentration not given here
[6] = target: T3, Orexin/Hypocretin receptor type 1 (Homo sapiens, UniProt O43613); assay: as §2; type: cell-based
T3 sequence (O43613 whole entry): T2 sequence (whole entry)

[7] = target: T2, Orexin/Hypocretin receptor type 1 (Homo sapiens); conditions: CHO, time 120.0 sec
Description: Agonist activity at human orexin 1 receptor expressed in CHO cells assessed as increase in calcium mobilization incubated for 120 secs by Fluo-4AM dye based fluorescence assay

Row | SMILES | pKi [1] | pEC50 [2] | pKi [3] | pKi [4] | inhibition [5] [%] | Ki [6] [µM] | pEC50 [7] | IC50 [6] [µM]
1 | O=C(COc1ccc(-c2ccccc2)cc1)c1ccc(O)cc1O | inactive | inactive | inactive |  |  |  |  | 
2 | O=C(Nc1cccc(/C=C/c2ccccn2)c1)c1occc1COc1ccccc1 |  |  |  | 4.98 | 39.9 | 7.94 |  | 
3 | Cc1ccccc1CN(C)C(=O)Cc1csc(-c2cccc(F)c2)n1 |  | inactive |  | 6.18 |  | 3.24 | inactive | 
4 | Cc1ccccc1OC[C@@H]1CCCN(C(=O)CCc2nc(-c3ccccn3)no2)C1 |  | inactive |  |  |  | 15.1 |  | 
5 | O=C(c1ccc(-c2nc3ccccc3s2)o1)N(Cc1ccco1)Cc1ccco1 |  | inactive |  | 5.5 |  | 3.55 | inactive | 
6 | Cc1ccc(-c2nc(CC(=O)N(C)Cc3c(F)cccc3Cl)cs2)o1 |  | inactive |  | 5.55 |  | 11.7 | inactive | 
7 | O=C1NC(=O)C(=Cc2c(OCc3ccccc3F)ccc3ccccc23)C(=O)N1 |  | inactive |  |  |  |  |  | 
8 | C[C@H](Sc1nc(-c2ccco2)nc2ccccc12)C(=O)N1CCc2ccccc2C1 |  | inactive |  | 5.5 |  | 8.91 | inactive | 
9 | Cc1ccc(-c2nc(CC(=O)N(C)[C@@H](C)c3ccc(F)cc3)cs2)o1 |  | inactive |  | 5.53 |  | 17 | inactive | 
10 | O=C(c1ccccc1Cc1ccccc1)N1CCN(Cc2csc(-c3ccco3)n2)CC1 |  | inactive |  |  |  | 14.8 |  | 
11 | O=C(C1=NN([C@H]2CCS(=O)(=O)C2)C(=O)CC1)N(CCc1ccccc1)c1nc2ccccc2s1 |  | inactive |  |  |  |  |  | > 100
12 | Cc1[nH]c2ccccc2c1[C@@H]1c2ccccc2C(=O)N1CCC(=O)N1CCN(c2ccccn2)CC1 |  | inactive |  |  |  |  |  | > 100
13 | Cc1ccc(CSCc2ccc(-c3nc(-c4ccccn4)no3)o2)cc1 |  | inactive |  | 5.07 | 79.2 | 15.5 |  | 
14 | COc1ccc([C@H]2CCCN2C(=O)c2ccc(OCc3cn4ccccc4n3)cc2)c(OC)c1 |  | inactive |  |  |  | 20.9 |  | 
15 | Cc1nc2cc(F)cc(C(=O)NCCOc3ccc4ccccc4c3)c2nc1C |  |  |  | 5.83 | 61.7 |  |  | 
16 | Cc1ccc(C(=O)[C@H](C)Oc2cccc(N3C(=O)[C@H]4[C@H](C)C=CC[C@@H]4C3=O)c2)cc1 |  |  |  | 4.97 | 49.9 | 7.76 |  | 
17 | Cc1ccc(N2CCCN(C(=O)c3cn(C)c4ccccc34)CC2)nn1 |  | inactive |  |  |  |  |  | > 100
18 | C[C@@H](Oc1ccc2c(c1)oc(=O)c1ccccc12)C(=O)c1ccccc1 |  | inactive |  | 5.27 | 63.7 | 5.37 | inactive | 
19 | O=C(c1sc2cccc(F)c2c1Cl)N1CCN(Cc2ccco2)CC1 |  | inactive |  |  |  |  |  | 
20 | Cc1ccc(Oc2ncccc2NC(=O)c2ccc3c(c2)OCCCO3)c2c1CCC2 |  |  |  | 5.19 | 67.1 | 5.13 |  | 
21 | Cc1ccc2[nH]c(C)c(CC(=O)N(Cc3cccnc3)C3CC3)c2c1 |  | inactive |  |  |  |  | inactive | 
